Experimental data as given in ChEMBL document CHEMBL5576059, “Design, synthesis and molecular docking study of novel triazole-quinazolinone hybrids as antimalarial and antitubercular agents” (Bioorg Med Chem Lett, 2024).
≈ marks a conversion by molar mass, not a printed value.

Experiments:
[1] = system: RAW264.7; test: Cytotoxicity against mouse RAW264.7 cells at 25 microg/ml by MTT assay; type: toxicity, cell-based; settings: dose 25 µg/ml
[2] = system: Plasmodium falciparum; test: Antimalarial activity against Plasmodium falciparum assessed as inhibition of parasite growth; type: functional, organism-based
[3] = system: Mycobacterium tuberculosis; test: Antitubercular activity against Mycobacterium tuberculosis H37RV ATCC27294 assessed as inhibition of bacterial growth by MABA assay; type: functional
[4] = Cytotoxicity against mouse RAW264.7 cells assessed as inhibition of cell growth at 78.29 uM by MTT assay relative to control; type: toxicity, cell-based
[5] = Cytotoxicity against mouse RAW264.7 cells assessed as inhibition of cell growth at 66.37 uM by MTT assay relative to control; type: toxicity, cell-based
[6] = Cytotoxicity against mouse RAW264.7 cells assessed as inhibition of cell growth at 81.35 uM by MTT assay relative to control; type: toxicity, cell-based

Structure (SMILES): Cc1ccc(-n2cc(-c3nc4ccccc4c(=O)[nH]3)nn2)cc1
- Activity [1]: Non-Toxic
- IC50 [2]: 3100 nM
- MIC [3]: > 82.4 µM

Structure (SMILES): O=c1[nH]c(-c2cn(-c3ccc(F)cc3)nn2)nc2ccccc12
- Activity [1]: Non-Toxic
- IC50 [2]: 1950 nM
- MIC [3]: > 81.4 µM

Structure (SMILES): Cc1cc(C)c(-n2cc(-c3nc4ccccc4c(=O)[nH]3)nn2)c(C)c1
- Activity [1]: Non-Toxic
- IC50 [2]: 2900 nM
- MIC [3]: > 75.4 µM

Structure (SMILES): CCc1ccc(-n2cc(-c3nc4ccccc4c(=O)[nH]3)nn2)cc1
- Activity [1]: Non-Toxic
- IC50 [2]: 3250 nM
- MIC [3]: 78.8 µM (≈ 25 µg/mL)

Structure (SMILES): O=c1[nH]c(-c2cn(-c3ccc(Cl)cc3)nn2)nc2ccccc12
- Activity [1]: Non-Toxic
- IC50 [2]: 1920 nM
- MIC [3]: 77.2 µM (≈ 25 µg/mL)

Structure (SMILES): Cc1ccc(-n2cc(-c3nc4ccccc4c(=O)[nH]3)nn2)c([N+](=O)[O-])c1
- Activity [1]: Non-Toxic
- IC50 [2]: 2350 nM
- MIC [3]: > 71.8 µM

Structure (SMILES): O=c1[nH]c(-c2cn(-c3ccccc3)nn2)nc2ccccc12
- Activity [1]: Non-Toxic
- IC50 [2]: 2560 nM
- MIC [3]: > 86.4 µM

Structure (SMILES): O=c1[nH]c(-c2cn(-c3ccc([N+](=O)[O-])cc3)nn2)nc2ccccc12
- Activity [1]: Non-Toxic
- IC50 [2]: 1970 nM
- MIC [3]: 74.8 µM (≈ 25 µg/mL)

Structure (SMILES): COc1ccc(-n2cc(-c3nc4ccccc4c(=O)[nH]3)nn2)cc1
- IC50 [2]: 2630 nM
- MIC [3]: 19.6 µM (≈ 6.25 µg/mL)
- inhibition at 78.29 µM [4]: 24.3%

Structure (SMILES): O=c1[nH]c(-c2cn(-c3ccc(Br)cc3)nn2)nc2ccccc12
- inhibition at 66.37 µM [5]: 29.8%
- IC50 [2]: 1960 nM
- MIC [3]: 33.2 µM (≈ 12.2 µg/mL)

Structure (SMILES): O=c1[nH]c(-c2cn(-c3ccccc3F)nn2)nc2ccccc12
- inhibition at 81.35 µM [6]: 27.2%
- IC50 [2]: 2210 nM
- MIC [3]: 40.7 µM (≈ 12.5 µg/mL)

Structure (SMILES): O=c1[nH]c(-c2cn(-c3cccc(Cl)c3)nn2)nc2ccccc12
- Activity [1]: Non-Toxic
- IC50 [2]: 2780 nM
- MIC [3]: > 77.2 µM

Structure (SMILES): CC[C@@H](CO)NCCN[C@@H](CC)CO [ETHAMBUTOL]
- MIC [3]: 7.64 µM (≈ 1.56 µg/mL)

Structure (SMILES): C=C[C@H]1CN2CC[C@H]1C[C@H]2[C@H](O)c1ccnc2ccc(OC)cc12 [QUININE]
- IC50 [2]: 826 nM

Structure (SMILES): CO[C@H]1/C=C/O[C@@]2(C)Oc3c(C)c(O)c4c(O)c(c(/C=N/N5CCN(C)CC5)c(O)c4c3C2=O)NC(=O)/C(C)=C\C=C\[C@H](C)[C@H](O)[C@@H](C)[C@@H](O)[C@@H](C)[C@H](OC(C)=O)[C@@H]1C [RIFAMPIN]
- MIC [3]: 0.13 µM (≈ 0.107 µg/mL)
